Reference: PMC5137160, “Optical imaging of MMP-12 active form in inflammation and aneurysm” (Scientific Reports, 2016)

Tests used:
[1] = Blood levels in apoE-/- mice; type: in vivo; conditions: mouse, whole blood, intravenous, 1 nmol, read-out: Blood level
Description: (§1) Fluorescent probes (one nmol in 100 μL saline) were administered through a jugular vein catheter under inhaled isoflurane anesthesia. Blood samples were collected at various time points after probe administration to monitor blood clearance. Animals were sacrificed at the indicated time points and various organs were harvested. Near-infrared fluorescence reflectance imaging was conducted using an IVIS Spectrum system (Caliper Life Science, Hopkinton, MA) with appropriate excitation (Ex) and emission (Em) filter sets (Ex/Em = 675/720 nm for probe 1 and Ex/Em = 745/800 nm for probes 3 and 4). Fluorescence from 10 μL of blood was converted to % injected dose per gram (% ID/g) using a standard curve derived from serial dilutions of each probe in 10 μL of mouse blood. Tissue fluorescence was quantified as mean efficiency per pixel and was presented as an arbitrary unit (AU) relative to the signal from each probe in 10 μL of mouse blood.

hMMP-1 = molecular target: T1, hMMP-1 (Homo sapiens, UniProt P03956); experiment: MMP inhibition assay (Ki); type: biochemical
T1 construct: purchased R&D Systems (Minneapolis, MN)
T1 sequence (P03956 100-469): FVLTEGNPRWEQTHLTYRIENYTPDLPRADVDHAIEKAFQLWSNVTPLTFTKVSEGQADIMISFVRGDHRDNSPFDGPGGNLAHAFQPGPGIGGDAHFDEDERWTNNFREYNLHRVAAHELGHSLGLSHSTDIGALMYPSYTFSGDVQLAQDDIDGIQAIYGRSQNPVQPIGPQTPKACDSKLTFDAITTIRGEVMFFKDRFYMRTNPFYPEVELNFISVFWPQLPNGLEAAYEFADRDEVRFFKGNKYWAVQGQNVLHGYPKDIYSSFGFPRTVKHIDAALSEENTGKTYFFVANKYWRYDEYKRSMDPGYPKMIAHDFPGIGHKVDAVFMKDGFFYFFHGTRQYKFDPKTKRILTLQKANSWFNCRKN
Description: (§2) Human MMP-8, -9, -12 and -13 were produced in the laboratory. Other MMPs were purchased from R&D Systems (Minneapolis, MN). MMP inhibition assays were carried out as previously described. Pro-MMPs were pre-activated by p-aminophenylmercuric acetate following the method described by R&D Systems. Titration experiments were carried out to determine active enzyme concentration for each MMP prior to the assay. For each probe, the percentage of inhibition was determined from five different concentrations in triplicates, chosen to reach a range of 20–80% inhibition. Ki values were determined using the method proposed by Horovitz and Leviski[45].

MMP-12 active form = MMP-12 active form (Mus musculus, UniProt P34960); experiment: MMP-12 imaging of carotid aneurysm; type: in vivo; set-up: from tissue; host or cells: CaCl2-induced aneurysmal left carotid artery of apoE-deficient mice (in vivo imaging and cryostat sections); conditions: high fat-fed apoE-/- mice, tissues harvested at 60 minutes after intravenous administration
MMP-12 active form, sequence (P34960 110-473): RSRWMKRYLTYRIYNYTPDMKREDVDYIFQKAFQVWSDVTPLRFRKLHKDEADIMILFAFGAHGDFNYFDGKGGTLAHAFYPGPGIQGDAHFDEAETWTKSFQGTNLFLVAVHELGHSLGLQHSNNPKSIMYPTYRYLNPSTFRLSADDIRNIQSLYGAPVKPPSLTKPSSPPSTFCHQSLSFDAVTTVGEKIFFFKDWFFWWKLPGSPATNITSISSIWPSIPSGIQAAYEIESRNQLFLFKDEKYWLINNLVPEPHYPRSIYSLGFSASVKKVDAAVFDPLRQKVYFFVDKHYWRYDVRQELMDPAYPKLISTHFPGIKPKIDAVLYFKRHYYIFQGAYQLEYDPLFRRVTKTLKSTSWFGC
Description: Carotid aneurysm model: Arterial aneurysm was induced over a 4-week period by exposing the left common carotid artery of apolipoprotein E–deficient (apoE^−/−, n = 7) mice (Jackson Laboratory) to calcium chloride, as described. The opposite carotid artery was exposed to normal saline and served as control for imaging studies. Tissues from a previous study (n = 3)[18] supplemented histologic evaluations.
as §1

human MMPs = experiment: Affinity and selectivity profile toward panel of human MMPs; type: biochemical
Description: as §2

TACE = TACE (Homo sapiens, UniProt P78536); experiment: Metalloprotease inhibition assay (Ki); type: biochemical
TACE, sequence (P78536 215-824): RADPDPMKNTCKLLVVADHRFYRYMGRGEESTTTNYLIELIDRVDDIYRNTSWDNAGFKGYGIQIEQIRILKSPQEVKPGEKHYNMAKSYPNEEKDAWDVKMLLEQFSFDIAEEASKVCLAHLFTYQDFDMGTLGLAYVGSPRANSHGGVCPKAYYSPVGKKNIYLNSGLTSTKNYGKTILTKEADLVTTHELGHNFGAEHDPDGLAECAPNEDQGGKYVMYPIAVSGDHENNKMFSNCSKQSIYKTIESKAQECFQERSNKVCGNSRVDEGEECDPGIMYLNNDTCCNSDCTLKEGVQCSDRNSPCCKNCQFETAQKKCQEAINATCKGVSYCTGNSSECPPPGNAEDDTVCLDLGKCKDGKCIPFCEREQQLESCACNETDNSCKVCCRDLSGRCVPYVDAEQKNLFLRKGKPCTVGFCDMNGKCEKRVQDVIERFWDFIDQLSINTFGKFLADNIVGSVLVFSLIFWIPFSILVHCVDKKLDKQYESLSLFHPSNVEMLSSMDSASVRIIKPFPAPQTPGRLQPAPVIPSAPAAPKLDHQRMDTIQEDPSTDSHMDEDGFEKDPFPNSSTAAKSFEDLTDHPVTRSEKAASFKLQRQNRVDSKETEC

[2] = Stability in mouse blood by HPLC; type: in vitro ADME; conditions: 4 hours at 37 °C
Description: (§3) Probes 1, 2, 3 and control probe 4 were synthesized from phosphinic building blocks whose synthesis was previously reported. Briefly, the elongation of the peptide’s sequence as well as the incorporation of the phosphinic building blocks were performed on solid support using a standard Fmoc strategy. After cleavage from the support, pseudo peptide intermediates were purified and subsequently engaged in a coupling reaction with the appropriate dye-NHS ester. The identity and purity of each optical probe were confirmed by analytical HPLC, mass spectrometry analysis and NMR (for detailed protocols and analytical data see supplemental information). The stability of each probe was confirmed in phosphate buffered saline (PBS). Moreover, the stability of probe 3 and its control, probe 4 were evaluated by HPLC in mouse blood over a period of 4 hours at 37 °C.

Stability in PBS = type: physicochemical
Description: as §3

[3] = Blood clearance and biodistribution after intravenous administration in wild type mice; type: in vivo; conditions: 1 nmol intravenous, 30 and 60 minutes, compared to probe 1
Description: as §1

| Compound | tissue uptake at 30 min [1] [%ID/g] | tissue uptake at 60 min [1] [%ID/g] | Ki (hMMP-1) [µM] | fluorescence signal in aneurysmal left carotid artery (MMP-12 active form) | affinity for human MMPs (human MMPs) | Ki (TACE) [µM] | stability in mouse blood [2] | stability in PBS (Stability in PBS) | residual blood level [3] |
| --- | --- | --- | --- | --- | --- | --- | --- | --- | --- |
| CC1(C)C(=CC=C2CCCC(C=CC3=[N+](CCC[N+](C)(C)C)c4ccc(S(=O)(=O)[O-])cc4C3(C)C)=C2Oc2ccc(CCC(=O)NCCCOCCOCCOCCCNC(=O)C(CCC(=O)[O-])NC(=O)C(CCC(=O)O)NC(=O)C(Cc3cc(-c4cccc(Oc5ccccc5)c4)no3)CP(=O)(O)c3ccc(Br)cc3)cc2)N(CCC[N+](C)(C)C)c2ccc(S(=O)(=O)[O-])cc21 (stereo not drawn) [probe 4] | 2.4 ± 0.3 | 2 ± 0.2 | > 10 | significantly lower signal | no affinity | > 25 | stable | – | – |
| CC1(C)C(/C=C/C2=C(Oc3ccc(CCC(=O)NCCCOCCOCCOCCCNC(=O)[C@H](CCC(=O)[O-])NC(=O)[C@H](CCC(=O)O)NC(=O)[C@H](Cc4cc(-c5ccc(-c6cccc(Cl)c6)cc5)no4)CP(=O)(O)c4ccc(Br)cc4)cc3)C(=C/C=C3/N(CCC[N+](C)(C)C)c4ccc(S(=O)(=O)[O-])cc4C3(C)C)/CCC2)=[N+](CCC[N+](C)(C)C)c2ccc(S(=O)(=O)[O-])cc21 [probe 3] | 2.7 ± 0.1 | 2.3 ± 0.3 | > 10 | significantly higher than the signal in the control, contralateral artery | – | 4.61 ± 0.653 | fully stable | fully stable | significantly lower residual blood level |
